Measured values as given in patent US11448643B2, “Methods to specifically profile protease activity at lymph nodes” (Massachusetts Institute of Technology, priority 2016, dated 2022).
Square brackets hold non-standard residues; d marks the D form. Ends that are not written are not given here. Pip = O=C(O)[C@@H]1CCCCN1

Legend:
[1] = tested on: metalloproteases in the LN; conditions: mice vaccinated with amph-EGP plus lipo-CpG and boosted; urine collected 3 hours after injection; ELISA; FIG. 6
Protocol: Mice were injected subcutaneously and urine for analysis was collected 3 h post-administration.
Mice were later boosted to engage both innate and adaptive immunity. Subsequently, mice were administered a LN-targeting pro-diagnostic reagent comprising a LN-specific enzyme susceptible domain (e.g., protease substrate). Cleavage of the pro-diagnostic reagent by metalloproteases in the LN results in production of signature molecules (ligand encoded tags) that are released into the urine of the subject (e.g., mouse). Urine was collected from the mice 3 hours after injection. Reporter signal was quantified by ELISA.

[2] = tested on: homogenized lymph nodes from vaccinated mice; test: Ex vivo peptide screen: cleavage of fluorogenic protease substrates by homogenized lymph nodes from vaccinated vs control mice; type: biochemical; conditions: 58 fluorogenic substrates; 384 well plates; fluorescence over several hours; FIG. 7
Protocol: Substrate cleavage of 58 peptides was measured. Signal reported is the fold difference in cleavage between vaccinated mice and PBS-injected mice.
Mice were vaccinated in the same manner as described above. Lymph nodes from vaccinated or non-vaccinated mice were harvested. The harvested lymph nodes were homogenized and added to the 58 fluorogenic protease substrates (SEQ ID NOs: 2-59) in 384 well plates. Fluorescent signal was monitored over the period of several hours for each substrate in the well plates. Fluorescence of reporter molecules in lymph nodes of vaccinated mice was compared to non-vaccinated mice (injected with PBS) and reported as the fold difference in cleavage of each substrate between vaccinated and control mice. […] The substrate used urinary monitoring experiment described above is referred to as Q7 (PLGVRGK; SEQ ID NO: 76).

Substance	urinary reporter signal in vaccinated mice compared to PBS-injected mice [1]	rank of substrate cleavage (fold difference vaccinated vs control mice) [2]
Albumin-GPLGVRGKGK(Biotin)eGvndneeGffsarK(FAM) [Albumin-B7]	significantly increased	–
GGVPRG (also: fluorogenic labels) [PQ12]	–	two highest cleaved substrates
f(Pip)KSGGG ([dF][Pip]KSGGG; also: fluorogenic labels) [Q10, fluorogenic protease substrate, f is D-Phe, Pip is pipecolic acid]	–	two highest cleaved substrates
